Laboratory results from patent EP4775580A1, “COMPOUND, PHARMACEUTICAL COMPOSITION COMPRISING SAME, AND USE THEREOF” (Euregen Biopharma Co., Ltd., priority 2023, dated 2025).

system: MV-4-11 cells; experiment: Antiproliferative activity against MV-4-11 cells (CTG method, 72 h); type: cell-based; settings: Homo sapiens, MV4-11, 72 hours incubation, CellTiter-Glo
From the text: • 1. Experimental Principle: MV-4-11 is a human leukemia cell line harboring MLL translocation and expressing the MLL fusion protein MLL-AF4. […] Experimental Materials: CellTiter-Glo was purchased from Promega (Cat. #G7571); IMDM medium was purchased from Gibco (Cat. #12440061); fetal bovine serum was purchased from Excell (Cat. #FND500); dimethyl sulfoxide (DMSO) was purchased from Sigma (Cat. #D2650); 384-well cell culture plates were purchased from Corning (Cat. #3756); automated cell counter was obtained from Life Technologies (Model: Countess II); microplate reader was obtained from PerkinElmer (Model: EnVision Multilabel Reader). • 3. Experimental Methods: Cells in logarithmic growth phase were resuspended in growth medium (IMDM + 10% FBS) and diluted to the target density (50,000/mL). The cell suspension was seeded into 384-well plates at 50 µL per well and incubated overnight at 37°C in a 5% CO2 incubator.
Test compounds were dissolved in DMSO to prepare 10 mM stock solutions. The stock solutions were first diluted to 2 mmol/L with DMSO, followed by 3-fold serial dilutions to generate 10 concentrations. From each concentration, 5.5 µL was diluted with 94.5 µL growth medium. The diluted solutions were then added to the 384-well plates containing seeded cells at 5 µL per well.
Cells treated with test compounds were incubated at 37°C in a 5% CO2 incubator for 72 hours. The 384-well plates were equilibrated at room temperature, and 15 µL of CellTiter-Glo reagent was added to each well. The plates were mixed on a vortex mixer for 2 minutes and incubated at room temperature for 60 minutes. Luminescence values were read using the EnVision Multilabel Reader, and IC50 values were calculated using GraphPad Prism 5.0 software.

Row | IC50 | SMILES
1 | 293 nM | CCN(C(=O)c1cc(F)ccc1N1CCN(C2CCN(C[C@H]3CC[C@H](NS(C)(=O)=O)CC3)C2)c2ncncc21)C(C)C (stereo partly shown) [Comparative Compound 1]
2 | 800 nM | CCN(C(=O)c1cc(F)ccc1N1CCN(C2CCN(Cc3ccc4[nH]c(C#N)cc4c3C)C2)c2ncncc21)C(C)C (stereo not shown) [Comparative Compound 2]

system: MV-4-11 cells; experiment: Antiproliferative activity, CellTiter-Glo, 7 days (Test Example 2), MV-4-11; type: cell-based; settings: Homo sapiens, MV4-11, 168 h, 7 days incubation
From the text: (§1) [0134] 1. Experimental Principle: MV-4-11, Molm-13, and OCI-AML-3 cells are human hematologic tumor cell lines harboring the Menin-MLL fusion. HL-60 is a wild-type human hematologic tumor cell line without Menin-MLL fusion. […] 2. Experimental Materials: MV-4-11, Molm-13, OCI-AML-3, and HL-60 cells were all purchased from Cobioer; CellTiter-Glo® was purchased from Promega (Cat. #G7571); RPMI-1640 was purchased from Viva Cell (Cat. #C3010-0500); IMDM was purchased from Viva Cell (Cat. #C3040-0500); fetal bovine serum (FBS) was purchased from Biosera (Cat. #FB-1058/500); penicillin-streptomycin was purchased from BasalMedia (Cat. #S110JV); 0.25% Trypsin-EDTA was purchased from BasalMedia (Cat. #S310KJ); dimethyl sulfoxide (DMSO) was purchased from Sinopharm (Cat. #30072418); 96-well plates were purchased from Corning (Cat. #3610); incubator was obtained from PHCbi (Model: MCO-18AC); inverted microscope was obtained from Mingmei (Cat. #MI52-0); automated cell counter was obtained from BodBoge (Model: JSY-SC-031N); microplate reader was obtained from PerkinElmer (Model: Envision); data processing software: GraphPad Prism 8.0. 3. Experimental Methods: Four cell lines in logarithmic growth phase were resuspended in their respective growth media (MV-4-11: IMDM + 20% FBS; Molm-13: RPMI-1640 + 20% FBS; OCI-AML-3: RPMI-1640 + 20% FBS; HL-60: RPMI-1640 + 10% FBS) and diluted to target densities (12,500, 6,250, 12,500, and 12,500/mL, respectively). The cell suspensions were seeded into 96-well plates at 80 µL per well and incubated overnight at 37°C in a 5% CO2 incubator. Culture medium served as the background control. Test compounds were dissolved in DMSO to prepare 10 mmol/L stock solutions. The stock solutions were first diluted to 2 mmol/L with DMSO, followed by 4-fold serial dilutions to generate 10 concentrations. From each concentration, 2 µL was diluted with 78 µL growth medium. […] After incubation at room temperature for 10 minutes, luminescence values were read using the EnVision microplate reader, and IC50 values were calculated using GraphPad Prism 8.0 software. […]

Row | IC50 | SMILES
3 | 14.4 nM | CNc1nc(NC2CCN(Cc3ccc4c(cc(C#N)n4C[C@H](C)N4CCN(S(C)(=O)=O)CC4)c3C)CC2)c2cc(CC(F)(F)F)sc2n1 [KO539]

system: HL-60 cells; experiment: Antiproliferative activity, CellTiter-Glo, 7 days (Test Example 2), HL-60; type: cell-based; settings: Homo sapiens, 168 h, HL-60 cells (no Menin-MLL fusion), 7 days incubation
From the text: as §1

Row | IC50 | SMILES
4 | 2050 nM | CNc1nc(NC2CCN(Cc3ccc4c(cc(C#N)n4C[C@H](C)N4CCN(S(C)(=O)=O)CC4)c3C)CC2)c2cc(CC(F)(F)F)sc2n1 [KO539]
